Assay results reported in patent US5833946A, “Dissemination of fungal infections: animal model and method of prophylaxis” (priority 1995, dated 1998).
Like-named read-outs stand apart in the source and are kept apart here. Non-standard residues stand in square brackets, D forms with d. Residues, ends and D or L forms follow the SMILES beside them. *: point of attachment. Sta = CC(C)C[C@H](N)[C@@H](O)CC(=O)O; Isovaleryl = CC(C)CC(=O)*

Columns and labels:
[1] = system: C. albicans; assay: Control experiments with ciprofloxacin alone (data not shown); details: ciprofloxacin by itself
Excerpt: (§1) To examine the role of the protease under conditions in which the challenge dose of C. albicans first has to cross the airway epithelium before it can disseminate, the following procedure was developed. To both mimic the immunosuppressed patient state and increase susceptibility of the test animals to C. albicans, mice were rendered neutropenic by treatment with cyclophosphamide, and received concurrent ciprofloxacin treatment to block opportunistic infection by endogenous gram negative flora.

[2] = system: C. albicans ATCC 32354; assay: Survival after lethal airway (intranasal) challenge in immunosuppressed mice; assay type: in vivo; details: for ED50: Candida albicans, ATCC32354, ip, i.p. daily days 0-4, neutropenic mice, intranasal challenge, read-out: EC50 (survival, airway challenge)
Excerpt: as §1
(§2) Challenge inoculum was prepared by streaking Candida albicans (ATCC 32354) onto Sabouraud dextrose agar from a frozen glycerol stock and incubating overnight at 37° C. Five hours before challenge, the culture was re-streaked onto four Sabouraud dextrose agar slants and incubated (4 h. 37° C.). The culture was then washed from the agar slants with sterile saline, resuspended in fresh saline to achieve an A660nm of 0.2, and kept on ice until used. Fifty μl of a 10^-4 dilution of this challenge stock was plated to determine retrospectively the exact challenge dose in c.f.u. Female Swiss Webster mice (Charles River Breeding Laboratories, Inc., Wilmington, Mass., approx. 23 g, ten mice per group) received 125 mgKg^-1 cyclophosphamide i.p. in 0.2 ml of saline on days -5 and -3, 0, 2 and 4 of the study. On day 0, mice were anesthetized with 80 mgKg^-1 sodium pentobarbital i.p. and challenged intranasally with either 2.5×10^5 c.f.u. in 50 μl of saline or 50 μl of saline only (toxicity controls). On each of days 1 to 4 mice also received 50 mgKg^-1 Ciprofloxacin (i.p. in WFI/5% (w/v) glucose) to prevent bacterial infection in the immunocompromised mice. On days 0 to 4, groups of mice (n=10) received one of the following daily treatments (0.1 ml i.p.): saline, amphotericin B (0.1 to 1.0 mgKg^-1); and pepstatin A (0.06 to 6.0 mgKg^-1). Pepstatin A was dissolved in DMSO at 13.8 mgml^-1 and diluted 1:10 in saline for the 6 mgKg^-1 dose. Lower doses were diluted in normal saline serially from the 6 mgKg^-1 dose. Stock amphotericin B (5 mg/ml in WFI) was diluted in WFI containing 5% glucose. Treatment with drug on day zero was performed three hours prior to airway challenge with C. albicans. Survival was monitored for fifteen days following challenge. Toxicity controls were weighed daily over the duration of treatment. Animals from parallel groups (n=10) of mice were sacrificed at various stages and used to determine organ burdens and histopathology. Organ burdens were determined in parallel in 3 mice from parallel groups that were sacrificed on days 2, 4, and 17. Mice were anesthetized with sodium pentobarbital (80 mgKg^-1), bled by cardiac puncture, and then given a lethal dose of sodium pentobarbital. The kidneys, spleen, liver, and lungs were removed, weighed, and homogenized in 10 ml sterile PBS. Each organ homogenate (including heart blood) was serially diluted, plated on Sabauroud dextrose agar and incubated overnight at 37° C. Resulting colonies were counted to derive c.f.u./gram wet weight of organ.

[3] = system: C. albicans ATCC 32354; assay: Growth of C. albicans in culture (A660nm); assay type: cell-based
Experimental: To study the effects of pepstatin A on growth of C. albicans, 0.1 ml of an overnight C. albicans culture was used to inoculate 10 ml cultures of either 1) YCB/BSA, or 2) a YD medium (0.2% yeast extract, 2% glucose) that contained 40 mM ammonium chloride. Pepstatin A was included in the cultures at final concentrations ranging between 0 and 10 μM (administered from a 50 μM aqueous stock). Growth of cultures at 30° C. was monitored by following A660nm. The growth of ATCC 32354 in YCB/BSA was inhibited about 90% by 2 μM pepstatin A (table II). This effect of pepstatin was fungistatic as resuspension of arrested cells in fermentation medium devoid of pepstatin A restored cell growth. […] Since ammonium chloride both removes dependence on, and suppresses the production of the secretory acid proteases, the mechanism of pepstatin inhibition action is likely to involve protease inhibition.

[4] = system: peak II secretory protease of C. albicans ATCC 32354; assay: Dns-ISEVNLDAEFR-amide cleavage by mono-Q peak II protease (HPLC, fluorimetric); assay type: biochemical
Experimental: (§3) The proteases secreted by C. albicans ATCC 32354 also hydrolyzed the fluorescent peptide Dns-Ile-Ser-Glu-Val-Asn-Leu-Asp-Ala-Glu-Phe-Arg-amide (SEQ ID NO: 4), abbreviated Dns-ISEVNLDAEFR-amide. Aliquots of the protease-containing fractions recovered from mono-Q chromatography described in Example 1 (2 to 10 μl) were incubated with 30 μM final concentration of the fluorescent substrate Dns-ISEVNLDAEFR-amide at 37° C. in 60 μl 50 mM sodium citrate buffer of pH 4.4 for 15 minutes, after which reactions were terminated by addition of 50 μM pepstatin A in 33% v/v methanol to 10 μM final concentration, and set aside for HPLC analysis. […] Unconverted Dns-ISEVNLDAEFR-amide (RT=5.55 min) and fluorescent products eluting at 4.2 min (Dns-Ile-Ser-Glu-Val-Asn-Leu (SEQ ID NO: 5), and 3.0 min (unidentified), were resolved and detected fluorimetrically.
(§4) The secretory aspartic proteases produced by other pathogenic C. albicans strains and Candida sp. are inhibitable by pepstatin A and are therefore of the aspartyl class. To determine if the peak I, II, or III protease activities secreted by ATCC 32354 were also of the aspartyl class, their susceptibility to inhibition by pepstatin A was determined. […]

[5] = system: C. albicans; details: administered prior to i.v. challenge with C. albicans; cited from earlier work
[6] = system: peak I secretory protease of C. albicans ATCC 32354; assay: Dns-ISEVNLDAEFR-amide cleavage by mono-Q peak I protease (HPLC, fluorimetric); assay type: biochemical; details: peak I enzyme
Experimental: as §3, §4

[7] = system: C. albicans ATCC 32354; assay: Mortality after intravenous challenge; assay type: in vivo, mice
Experimental: Female Swiss Webster mice (n=10 per treatment group) were challenged by tail vein injection with 10^6 c.f.u. Candida albicans ATCC 32354 in 0.2 ml saline and mortality was monitored over the following 14 days. Three hr prior to challenge with candida, and on days 1 to 5 post challenge with candida, mice also received one of the following compounds (i.p. in saline): saline alone; 0.6 mgKg^-1 pepstatin A, or 1 mgKg^-1 amphotericin B. Challenge inoculum containing C. albicans was prepared in the same manner as used for airway challenge experiments except that it was adjusted to a final A660nm of 2.0.

[8] = system: peak III secretory protease of C. albicans ATCC 32354; assay: Dns-ISEVNLDAEFR-amide cleavage by mono-Q peak III protease (HPLC, fluorimetric); assay type: biochemical; details: peak III enzyme, read-out: I.C.50 Pepstatin
Experimental: as §3, §4

[9] = system: C. albicans ATCC 32354; assay: Organ burdens (c.f.u.) after intranasal challenge in immunosuppressed mice; assay type: in vivo; parameters: C. albicans, kidney / C. albicans, lungs: scale not given here
Experimental: as §2

[10] = system: C. albicans ATCC 32354; assay: Histopathology of lung sections after airway challenge; assay type: in vivo, mice; details: 0.06 and 0.6 mg/Kg^-1
Experimental: For histopathology, mice from above described groups (two mice per group) were sacrificed on days 2 and 4 by administration of a lethal dose of sodium pentobarbitol. The lungs, liver, kidneys, and spleen were removed intact, embedded in paraffin, sectioned (5 μm), and stained with ammoniacal silver to visualize the Candida. Slides were stained by immersing in 4% periodic acid for 5 minutes, rinsing in distilled water five times, then immersing in a solution of ammoniacal silver (0.1% silver nitrate, 0.02% lithium hydroxide monohydrate) that had been heated by microwave (420 W for 1 min). Slides were microwaved in this solution for one minute then allowed to remain in the hot solution for one more minute before rinsing four times in distilled water and toning in 0.2% gold chloride for thirty seconds. Slides were then rinsed twice in distilled water, placed in 2% sodium thiosulfate for thirty seconds, then rinsed three times and dehydrated through graded alcohols. Finally, slides were cleared in 3-4 changes of xylene and mounted with Permount.

[11] = system: C. albicans ATCC 32354; assay: Formation of hyphae in culture (Gram stain, microscopy); assay type: cell-based; details: YCB/BSA, 48 hours, 2 μM and above
Experimental: Aliquots of cultures were removed after 48 hours, heat fixed on slides, and Gram stained (VWR Scientific, Inc., Boston, Mass.).

[12] = 0.6 mg Kg^-1, 4 days post challenge

Compound: O=C(O)c1cn(C2CC2)c2cc(N3CCNCC3)c(F)cc2c1=O [ciprofloxacin]
- effect on C. albicans in vitro or in vivo [1]: no effect

Compound: 1{92S,4S,5S)-5-[(2S)-3-(tert-Butylsulphonyl)-2-(1-naphthylmethyl)propanoyl]-(2R)N-(tert-butoxycarbonyl)-2-amino-2-[2-(1,3-dithiolan-2-yl)]ethanoyl]amino-6-cyclohexyl-4-hydroxy-2-(1-methyl)ethyl-hexanoyl}-s-isoleucinyl-2-yridylamide [compound X]
- protection against lethal airway challenge ([2]; 0.1 mgKg^-1): Complete protection
- effect on growth of C. albicans in YCB/BSA ([3]; YCB/BSA): blocked growth
- A660 nm ([3]; YCB/BSA, 168 hours in culture, 10 μM (no compound 3.13)): 0.26
- IC50 ([4]; peak II protease, read-out: I.C.50, in vitro activity of the peak II protease): 0.11 µM

Compound: CC(C)CC(=O)N[C@H](C(=O)N[C@H](C(=O)N[C@@H](CC(C)C)[C@@H](O)CC(=O)N[C@@H](C)C(=O)N[C@@H](CC(C)C)[C@@H](O)CC(=O)O)C(C)C)C(C)C [pepstatin A] (Isovaleryl-VV[Sta]A[Sta]-OH)
- reduced mortality in a statistically significant fashion (neither/nor = did not) [5]: neither
- IC50 ([6]; product eluting at 3.0 min, 15 min pre-incubation, 1 hr reaction, pH 4.4, read-out: I.C.50 Pepstatin): 0.009 µM
- I.C.50 Pepstatin ([6]; product eluting at 4.2 min, N. I. = no inhibition): N. I.
- survival ([2]; 0.6 mgKg^-1 i.p. daily days 0-4, airway challenge): 100%
- ED50 [2]: ~0.06 mg/kg
- protective effect upon pretreating mice ([2]; airway challenge, dose-dependent, 0.06 to 0.6 mgKg^-1): strong protective effect
- survival time post i.v. challenge ([7]; 0.6 mgKg^-1 i.p.): did not survive past day two
- protective effect, classical i.v. challenge protocol ([7]; 0.6 mgKg^-1 i.p., 3 hr prior and days 1 to 5): no protective effect
- IC50 ([8]; product eluting at 3.0 min): 0.029 µM
- IC50 ([8]; product eluting at 4.2 min): 0.036 µM
- C. albicans, kidney ([9]; 0.06 mg Kg^-1, 4 days post challenge (0 dose 39 ± 18.4)): 0.67 ± 0.15 c. f. u. g^-1 homogenized tiss
- C. albicans, lungs ([9]; 0.06 mg Kg^-1, 4 days post challenge (0 dose 4,540 ± 2,160)): 0.58 ± 0.39 c. f. u. g^-1 homogenized tiss
- C. albicans, kidney [9, 12]: 0.49 ± 0.22 c. f. u. g^-1 homogenized tiss
- C. albicans, lungs [9, 12]: 0.13 ± 0.19 c. f. u. g^-1 homogenized tiss
- c.f.u. recovered from the kidneys ([9]; all doses): a small number of c.f.u.'s were recovered
- c.f.u. remaining in the lung tissue ([9]; intranasal challenge): dramatically reduced
- dissemination to the spleen and liver ([9]; intranasal challenge): completely blocked dissemination
- inhibition at 2 µM ([3]; Candida albicans, ATCC32354, YCB/BSA, 2 μM): ~90%
- nature of growth effect (resuspension without inhibitor restored growth) ([3]; YCB/BSA): fungistatic
- A660 nm ([3]; YCB/BSA, 145 hours in culture, 2.0 μM (control 1.97)): 0.18
- A660 nm ([3]; YCB/BSA, 145 hours in culture, 10.0 μM (control 1.97)): 0.17
- inhibitory effect on growth in YD containing ammonium chloride ([3]; YD + 40 mM ammonium chloride, up to 10 μM): no significant inhibitory effects
- A660 nm ([3]; YD + NH4Cl, 145 hours in culture, 2.0 μM (control 2.97)): 2.99
- A660 nm ([3]; YD + NH4Cl, 145 hours in culture, 10.0 μM (control 2.97)): 3.20
- IC50 ([4]; peak II enzyme, product eluting at 4.2 min, read-out: I.C.50 Pepstatin): 0.028 µM
- growth of C. albicans and hyphae formation in the lungs (histopathology) [10]: inhibited both the growth of C. albicans and hyphae formation
- formation of hyphae in cultures [11]: inhibited the formation of hyphae

Compound: C[C@@H]1[C@H](O)[C@@H](C)/C=C/C=C/C=C/C=C/C=C/C=C/C=C/[C@H](O[C@@H]2O[C@H](C)[C@@H](O)[C@H](N)[C@@H]2O)C[C@@H]2O[C@](O)(C[C@@H](O)C[C@@H](O)[C@H](O)CC[C@@H](O)C[C@@H](O)CC(=O)O[C@H]1C)C[C@H](O)[C@H]2C(=O)O [amphotericin B]
- protection against lethal airway challenge ([2]; 1 mgKg^-1 i.p. daily days 0-4, first dose 3 h before challenge): complete protection
- ED50 [2]: ~0.1 mg/kg
- survival rate after 14 days, i.v. challenge ([7]; 1 mgKg^-1 i.p., 3 hr prior and days 1 to 5): 70%
